Measured values taken from US20090054259A1, “METHODS FOR INDUCING COMPLETE APOPTOSIS OF LIVER CELLS EXPRESSING HBCHI PROTEIN AND SCREENING FOR SUBSTANCES OR GENES THAT INHIBIT THE APOPTOSIS” (priority 2004, published 2009).
Read-outs that look alike come from different tables or passages of the source.

How the values were obtained:
[1] = test system: Chang X31 cells; assay type: cell-based, human
[2] = test system: Chang V9 cells; experiment: Induction of apoptosis by sulfasalazine in the control liver cell line not expressing HBx protein; assay type: cell-based, human; conditions: for extent of apoptosis: 120 h
[3] = test system: Chang X31 cells; assay type: cell-based, human; conditions: for extent of apoptosis: 120 h
[4] = test system: NF-κB; conditions: through inhibiting the phosphorylation of IκB; Wahl et al. 1998; cited from earlier work
[5] = test system: Chang V9 cells; experiment: DAPI staining, morphology of apoptosis; assay type: cell-based, human; conditions: 1.3 mM sulfasalazine, 72 hours
Description: (§1) Chang X 31 and Chang V9 cells were split on 6-well plates, and […], treated with 1.3 mM sulfasalazine.
(§2) 72 hours after the sulfasalzine treatment, DAPI staining was performed to observe apoptosis. The cells were directly fixed in the cold solution consisting of 1% […] and 0.2% glutaraldehyde for 5 min, washed twice with PBS and then stained with 1 mg/ml of DAPI solution (Sigma, USA). The cells were incubated for 5 hours in dark.
(§3) The stained cells were examined using a fluorescent microscopy.

[6] = test system: Chang X31 cells; experiment: DAPI staining, morphology of apoptosis; assay type: cell-based, human; conditions: 1.3 mM sulfasalazine, 72 hours
Description: as §1, §2, §3

Compound: N[C@@H](CCC(=O)N[C@@H](CS)C(=O)NCC(=O)O)C(=O)O [GSH, glutathione]
- apoptosis [1]: only partial apoptosis
- inhibition of the apoptosis of the liver cell line (conclusion) [1]: effective in inhibiting the apoptosis

Compound: CC(=O)N[C@@H](CS)C(=O)O [NAC, N-acetyl-L-cystein]
- apoptosis ([1]; 2 mM GSH (group I), 1 mM NAC (group II) before 1.3 mM sulfasalazine, 120 h, crystal violet): only partial apoptosis
- inhibition of the apoptosis of the liver cell line (conclusion) ([1]; 2 mM GSH, 1 mM NAC, 0.5 mM STS, […]): effective in inhibiting the apoptosis

Compound: CN[C@@H]1C[C@H]2O[C@@](C)([C@@H]1OC)n1c3ccccc3c3c4c(c5c6ccccc6n2c5c31)C(=O)NC4 [STS, staurosporine]
- apoptosis ([1]; 0.5 mM STS (group III) before 1.3 mM sulfasalazine, 120 h, crystal violet): 100%

Compound: O=C(O)c1cc(/N=N/c2ccc(S(=O)(=O)Nc3ccccn3)cc2)ccc1O [sulfasalazine]
- survival rate ([2]; 1.0 mM sulfasalazine, re-treated at 48 h, read 72 h after re-treatment (120 h)): at least 50%
- extent of apoptosis ([2]; 1.3 mM sulfasalazine): 10%
- extent of apoptosis ([2]; at least 1.5 mM sulfasalazine): at least 20%
- survival rate ([3]; 1.0 mM sulfasalazine, re-treated at 48 h, read 72 h after re-treatment (120 h), […]): at least 50%
- extent of apoptosis ([3]; 1.3 mM sulfasalazine, […]): 100%
- extent of apoptosis ([3]; at least 1.5 mM sulfasalazine, […]): 100%
- concentration inducing complete apoptosis of Chang X31 cells ([3]; complete (100%) apoptosis within 120 hours): at least 1.3 mM
- effect on TNF-α-induced nuclear translocation of NF-κB [4]: prevents TNF-α-induced nuclear translocation of NF-κB
- typical features of apoptosis (nuclear condensation, shrinkage, fragmentation) [5]: not in Chang V9
- typical features of apoptosis (nuclear condensation, shrinkage, fragmentation) [6]: observed in only Chang X 31
